This note sets out measurements from patent US20260217708A1, “FUSED BENZAZEPINE DERIVATIVES FOR USE IN THE TREATMENT OF CANCER AND EPILEPSY” (UCB BIOPHARMA SRL, priority 2023, published 2026).

The structures appear in SMILES notation.

Assay [1] concerns the target T1, system Xc^− (Homo sapiens, UniProt Q9UPY5).
T1 sequence (Q9UPY5 1-501): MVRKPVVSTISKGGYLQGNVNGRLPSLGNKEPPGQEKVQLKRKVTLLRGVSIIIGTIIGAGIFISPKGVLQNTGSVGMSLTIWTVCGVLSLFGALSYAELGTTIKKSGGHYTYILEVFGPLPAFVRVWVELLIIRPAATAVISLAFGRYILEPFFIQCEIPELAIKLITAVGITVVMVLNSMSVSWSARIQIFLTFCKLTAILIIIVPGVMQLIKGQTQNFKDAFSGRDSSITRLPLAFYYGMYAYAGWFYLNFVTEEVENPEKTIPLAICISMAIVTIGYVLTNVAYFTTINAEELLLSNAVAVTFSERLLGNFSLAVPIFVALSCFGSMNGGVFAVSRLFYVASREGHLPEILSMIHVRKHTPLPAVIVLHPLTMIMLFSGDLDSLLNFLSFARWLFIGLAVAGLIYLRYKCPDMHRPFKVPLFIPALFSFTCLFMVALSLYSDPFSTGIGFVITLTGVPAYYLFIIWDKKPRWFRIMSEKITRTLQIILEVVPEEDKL
T1 sequence (P08195 1-529 partner): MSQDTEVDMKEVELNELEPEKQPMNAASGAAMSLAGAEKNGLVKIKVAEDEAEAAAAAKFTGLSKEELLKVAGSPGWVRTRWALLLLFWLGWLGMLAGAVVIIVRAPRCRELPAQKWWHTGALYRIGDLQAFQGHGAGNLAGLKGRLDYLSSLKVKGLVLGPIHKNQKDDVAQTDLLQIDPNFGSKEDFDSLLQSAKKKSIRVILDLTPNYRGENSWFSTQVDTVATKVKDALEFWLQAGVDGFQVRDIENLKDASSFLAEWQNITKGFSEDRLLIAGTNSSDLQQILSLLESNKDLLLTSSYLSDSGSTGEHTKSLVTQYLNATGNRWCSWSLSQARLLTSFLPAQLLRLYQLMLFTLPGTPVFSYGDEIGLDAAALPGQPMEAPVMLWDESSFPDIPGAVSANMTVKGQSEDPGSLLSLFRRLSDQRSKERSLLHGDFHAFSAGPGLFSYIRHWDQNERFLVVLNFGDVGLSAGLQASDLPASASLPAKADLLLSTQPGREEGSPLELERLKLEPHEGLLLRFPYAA
Kind of assay: Cystine-induced glutamate release assay. In kind it is cell-based. Details: endogenous in cells; host or cells: H4 cells. To be noted: H4 cells, sodium-free HEPES buffer, 50 μM L-Cystine, 2 hours, Amplex Red glutamate readout; read-out: pIC50 Cystine-induced glutamate release assay (converted). The text has this: (§1) The effect of compounds of Formula (I) on the system Xc^− functionality was examined in two independent cell assays: (i) measurement of cystine-induced glutamate release; and (ii) measurement of [^14C]L-Cystine uptake.
(§2) As described above, System Xc^−, also known as the cystine/glutamate antiporter, is an amino acid transporter that mediates the extrusion of intracellular L-glutamate outside the cell and the uptake of extracellular L-cystine into the cell.
(§3) By measuring respectively, the concentration of glutamate released outside the cell and the L-cystine uptaken in the cell, with increasing concentrations of compounds of formula (I) according to the present invention, the efficacy of said compounds to inhibit the System Xc^− function can be evaluated.
(§4) The efficacy of the compounds to inhibit system Xc^− is represented by measuring the IC50 which corresponds to the concentration of compound necessary to inhibit 50% of the signals from the two control groups; DMSO 1% and Erastin 50 μM in the respective assays. pIC50 values correspond to −log of the IC50 in Molar.
Measurement of cystine-induced glutamate release indicates levels of glutamate (outside of the cell) that are dependent on system Xc^− antiporter function. Upon the addition of L-Cystine to H4 cells, intracellular glutamate is counter-transported and exported in the supernatant.
In this assay, the medium is devoid of sodium to prevent the transport of glutamate by sodium-dependent excitatory amino acid transporters (EAATs). H4 cells were plated on 384-well culture plate at 1×10^4 cells/well in Dulbecco's Modified Eagle Medium (DMEM) with L-glutamine, penicillin/streptomycin and 10% fetal bovine serum (all from ThermoFisher Scientific) and incubated in a humidified CO2 incubator at 37° C. After 2 days, cells were washed 4 times with prewarmed sodium-free HEPES buffer (contents in mM: HEPES 10, KCl 5.4, CaCl2 2.5, MgCl2 1, KH2PO4 0.4, D-Glucose 5, Choline chloride 140), pH 7.4. Glutamate release was induced by addition of 50 μM of L-Cystine (Sigma-Aldrich), together with a test compound of Formula (I) at 1% final DMSO concentration. After 2 hours of incubation in the culture incubator, supernatants were transferred to a low-binding polypropylene 384-well plate to determine L-glutamate concentration using Amplex™ Red Glutamic Acid Assay Kit (ThermoFisher Scientific). Briefly, 10 μL of Amplex™ Red working solution was added to 10 μL of the supernatant, then the mixture was incubated for 30 min at 37° C. Fluorescence intensity was measured by EnVision microplate reader (PerkinElmer).

Assay [2] has as its target T1, system Xc^−. Kind of assay: [^14C]L-Cystine uptake assay. Details: endogenous in cells; host or cells: H4 cells. The settings on record: H4 cells, sodium-free HEPES buffer, 0.5 μM L-[14C]Cystine and 4.5 μM L-Cystine, 1 hour at 37° C.; read-out: pIC50 [^14C] L-Cystine uptake assay (converted). Format: cell-based.
From the text: as §1, §2, §3, §4
In this assay, the medium is devoid of sodium to prevent the transport of glutamate by sodium-dependent excitatory amino acid transporters (EAATs). H4 cells were plated on a 96-well CytoStar-T scintillating microplate (PerkinElmer) at 5×10^4 cells/well in the medium described above. After 1 day, cells were washed one time with the sodium-free HEPES buffer and preincubated with test compounds of Formula (I) (1% final DMSO) for 15 min. Uptake was initiated by adding 0.5 μM L-[1,2, 1′,2′-^14C]Cystine (0.02 mCi/mL, PerkinElmer, Waltham, US) and 4.5 μM L-Cystine (Sigma-Aldrich). After 1 hour at 37° C., plates were counted in a MicroBeta^2 microplate counter (PerkinElmer).

`CC1C(=O)N(CC(=O)Nc2ccc(C(F)F)cc2)c2cc(C3CC3)nc(Cl)c2-c2cccnc21` (centres unmarked) [#347, 2-(3-chloro-5-cyclopropyl-10-methyl-9-oxo-4,8,12-triazatricyclo[9.4.0.0^2,7]pentadeca-1(15),2,4,6,11,13-hexaen-8-yl)-N-[4-(difluoromethyl)phenyl]acetamide]: the results for the IC50 in assay [1] and in assay [2] were 0.0398 to 0.1 µM and 0.0158 to 0.0398 µM, respectively.

With `Cc1cc2c(c(F)n1)-c1ccccc1CC(=O)N2CC(=O)Nc1ccc(C(F)F)cc1` [#134, N-[4-(difluoromethyl)phenyl]-2-(1-fluoro-3-methyl-6-oxo-7H-pyrido[4,3-d][3]benzazepin-5-yl)acetamide], the IC50 is 0.0398 to 0.1 µM in assay [1] and below 0.0158 µM in assay [2]. Taken in the same sequence, the figures for `CC1C(=O)N(CC(=O)Nc2ccc(Cl)c(F)c2)c2cc(C3CC3)c(=O)n(C)c2-c2ccccc21` (centres unmarked) [#321, N-(4-chloro-3-fluoro-phenyl)-2-(3-cyclopropyl-1,7-dimethyl-2,6-dioxo-7H-pyrido[3,2-d][3]benzazepin-5-yl)acetamide] were 0.0158 to 0.0398 µM and 0.0158 to 0.0398 µM.

With `CC1C(=O)N(CC(=O)Nc2ccc(Cl)c(F)c2)c2cc(C3(F)CN(C)C3)nc(Cl)c2-c2cccnc21` (centres unmarked) [#422, 2-[3-chloro-5-(3-fluoro-1-methyl-azetidin-3-yl)-10-methyl-9-oxo-4,8,12-triazatricyclo[9.4.0.0^2,7]pentadeca-1(11),2,4,6,12,14-hexaen-8-yl]-N-(4-chloro-3-fluoro-phenyl)acetamide], in assay [1], the IC50 was 0.0158 to 0.0398 µM. With `CC1C(=O)N(CC(=O)Nc2ccc(C(F)F)cc2)c2cc(N3CC(F)(F)C3)nc(Cl)c2-c2cccnc21` (centres unmarked) [#292, 2-[3-chloro-5-(3,3-difluoroazetidin-1-yl)-10-methyl-9-oxo-4,8,12-triazatricyclo[9.4.0.0^2,7]pentadeca-1(15),2,4,6,11,13-hexaen-8-yl]-N-[4-(difluoromethyl)phenyl]acetamide], the IC50 in assay [1] is below 0.0158 µM. The same measure, in the same setting: with `O=C(CN1C(=O)Cc2cc(Cl)ccc2-c2c1cc(C1CC1)nc2Cl)Nc1ccc(C(F)F)cc1` [#340, 2-(1,9-dichloro-3-cyclopropyl-6-oxo-7H-pyrido[4,3-d][3]benzazepin-5-yl)-N-[4-(difluoromethyl)phenyl]acetamide] the figure was 0.0398 to 0.1 µM; with `Cc1cc2c(c(C)n1)-c1ccc(C)nc1CC(=O)N2CC(=O)Nc1ccc(C(F)(F)F)cc1` [#70, N-[4-(trifluoromethyl)phenyl]-2-(3,5,13-trimethyl-9-oxo-4,8,12-triazatricyclo[9.4.0.0^2,7]pentadeca-1(11),2(7),3,5,12,14-hexaen-8-yl)acetamide], 0.0398 to 0.1 µM; with `Cc1cc2c(c(F)n1)-c1cccnc1[C@@H](C)C(=O)N2CC(=O)Nc1cc(F)c(Cl)cc1F` [#245, N-(4-chloro-2,5-difluoro-phenyl)-2-[(10R)-3-fluoro-5,10-dimethyl-9-oxo-4,8,12-triazatricyclo[9.4.0.0^2,7]pentadeca-1(15),2,4,6,11,13-hexaen-8-yl]acetamide], 0.0158 to 0.0398 µM. As to `CC1C(=O)N(CC(=O)Nc2ccc(C(F)F)cc2)c2cc(C(F)F)nc(Cl)c2-c2cccnc21` (centres unmarked) [#338, 2-[3-chloro-5-(difluoromethyl)-10-methyl-9-oxo-4,8,12-triazatricyclo[9.4.0.0^2,7]pentadeca-1(11),2(7),3,5,12,14-hexaen-8-yl]-N-[4-(difluoromethyl)phenyl]acetamide], the IC50 in assay [1] was below 0.0158 µM. Still for that read-out and setting: with `COc1ccc2c(c1)N(CC(=O)Nc1ccc(C(F)F)cc1)C(=O)C(C)c1ncccc1-2` (centres unmarked) [#305, N-[4-(difluoromethyl)phenyl]-2-(9-methoxy-5-methyl-6-oxo-5H-pyrido[2,3-d][1]benzazepin-7-yl)acetamide] the figure was 0.0398 to 0.1 µM; with `O=C(CN1C(=O)C(O)c2ncc(F)cc2-c2c(F)cc(F)cc21)Nc1ccc(C(F)F)cc1` (single isomer, unassigned) [#318, N-[4-(difluoromethyl)phenyl]-2-[2,9,11-trifluoro-5-hydroxy-6-oxo-5H-pyrido[2,3-d][1]benzazepin-7-yl]acetamide], below 0.0158 µM.
